The source of these data is ChEMBL document CHEMBL1146293, “From dihydroxypyrimidine carboxylic acids to carboxamide HIV-1 integrase inhibitors: SAR around the amide moiety” (Bioorg Med Chem Lett, 2007).

Active and inactive are the calls of the source. The calls are words filed in the database; no cut-off is given here.

Human immunodeficiency virus type 1 integrase, sequence (Q7ZJM1 whole entry): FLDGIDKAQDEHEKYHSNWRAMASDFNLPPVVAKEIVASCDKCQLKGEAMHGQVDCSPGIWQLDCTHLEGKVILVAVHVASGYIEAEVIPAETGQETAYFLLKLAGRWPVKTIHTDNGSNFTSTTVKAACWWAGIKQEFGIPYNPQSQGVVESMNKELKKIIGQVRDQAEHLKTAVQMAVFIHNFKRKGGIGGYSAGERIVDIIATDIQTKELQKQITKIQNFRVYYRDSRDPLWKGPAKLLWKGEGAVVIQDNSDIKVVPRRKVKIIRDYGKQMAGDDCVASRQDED

Test system in the first data set: not listed separately
Kind of data set: Plasma clearance in rat.
Conditions: not given
Format: ADME, organism-based.
Take `O=C(NCc1ccc(F)cc1)c1nc(-c2cccs2)nc(O)c1O`: the clearance turned out to be 11 mL/min/kg.

Another data set is filed under the species Homo sapiens. Kind of data set: Inhibitory activity against human DNA polymerase gamma.
Conditions: not given
As for `O=C(NCc1ccc(F)cc1)c1nc(-c2cccs2)nc(O)c1O`, the outcome was inactive.

The next data set concerns the target Human immunodeficiency virus type 1 integrase (Human immunodeficiency virus 1, UniProt Q7ZJM1). The data set is described as follows: Inhibition of HIV1 integrase strand transfer activity.
Conditions: not given
`COc1cccc(CNC(=O)c2nc(-c3cccs3)nc(O)c2O)c1` showed an IC50 of 50 nM.
For the compound `O=C(NCc1ccc(Cl)c(Cl)c1)c1nc(-c2cccs2)nc(O)c1O`, it took 10 nM to reach half-maximal inhibition (IC50). Compared with the last compound, the IC50 is about 5-fold lower.
The same measure, in the same setting: in the case of `COc1ccc(CNC(=O)c2nc(-c3cccs3)nc(O)c2O)cc1` it was 550 nM; in that of `O=C(NCc1ccccc1F)c1nc(-c2cccs2)nc(O)c1O`, 160 nM.
Still for that read-out and setting: then `O=C(NCc1ccc(Cl)cc1)c1nc(-c2cccs2)nc(O)c1O`, with 20 nM.
Same read-out and setting: then `O=C(Nc1cccc2ccccc12)c1nc(-c2cccs2)nc(O)c1O`, with 30 nM; and `O=C(NCc1cccc(F)c1)c1nc(-c2cccs2)nc(O)c1O`, with 70 nM; and `Cc1ccccc1CNC(=O)c1nc(-c2cccs2)nc(O)c1O`, with 110 nM.
`O=C(NCc1c[nH]c2ccccc12)c1nc(-c2cccs2)nc(O)c1O` came in with an IC50 of 20 nM.
The compound `O=C(NCC1CCCCC1)c1nc(-c2cccs2)nc(O)c1O` registered an IC50 of 50000 nM.
The same measure, in the same setting: in the case of `O=C(NCCc1ccccc1)c1nc(-c2cccs2)nc(O)c1O` it was 20 nM; in that of `O=C(Nc1cncs1)c1nc(-c2cccs2)nc(O)c1O`, 2500 nM; in that of `C[C@H](NC(=O)c1nc(-c2cccs2)nc(O)c1O)c1ccc2ccccc2c1`, 40 nM.
In turn, `O=C(NCc1cccc(-c2ccccc2)c1)c1nc(-c2cccs2)nc(O)c1O` yielded an IC50 of 50 nM. This IC50 and that of the compound before are within 1.5-fold of each other.
Turning to `CN(C(=O)c1nc(-c2cccs2)nc(O)c1O)c1cccc2ccccc12`, inhibition was half-maximal at 210 nM (IC50).
`Cc1ccc(CNC(=O)c2nc(-c3cccs3)nc(O)c2O)cc1`: the IC50 is 70 nM.
The same measure, in the same setting: in the case of `O=C(Nc1cccs1)c1nc(-c2cccs2)nc(O)c1O` it was 100 nM; in that of `O=C(N[C@H]1CCc2ccccc21)c1nc(-c2cccs2)nc(O)c1O`, 20 nM.
Same read-out and setting: in the case of `O=C(Nc1cc2ccccc2s1)c1nc(-c2cccs2)nc(O)c1O` it was 10 nM.
Turning to `COc1ccccc1CNC(=O)c1nc(-c2cccs2)nc(O)c1O`, the midpoint of inhibition, the IC50, lay at 90 nM.
Take `O=C(NCc1ccccc1-c1ccccc1)c1nc(-c2cccs2)nc(O)c1O`: the IC50 was determined as 130 nM.
For `O=C(N[C@@H]1CCc2ccccc21)c1nc(-c2cccs2)nc(O)c1O`, the midpoint of inhibition, the IC50, lay at 610 nM.
Compound `O=C(Nc1nccs1)c1nc(-c2cccs2)nc(O)c1O` showed an IC50 of 200 nM. This IC50 is about 3-fold lower than that of the compound before.
`Cc1cccc(CNC(=O)c2nc(-c3cccs3)nc(O)c2O)c1` had a concentration for half-maximal inhibition (IC50) of 40 nM.
As for `O=C(NCc1ccc(-c2ccccc2)cc1)c1nc(-c2cccs2)nc(O)c1O`, inhibition was half-maximal at 50000 nM (IC50).
Still for that read-out and setting: then `O=C(Nc1ccccc1)c1nc(-c2cccs2)nc(O)c1O`, with 1000 nM; and `O=C(NCc1ccncc1)c1nc(-c2cccs2)nc(O)c1O`, with 16600 nM.
Still for that read-out and setting: then `O=C(Nc1csc2ccccc12)c1nc(-c2cccs2)nc(O)c1O`, with 50 nM; and `C[C@@H](NC(=O)c1nc(-c2cccs2)nc(O)c1O)c1ccc2ccccc2c1`, with 610 nM.

The test system of the next data set is Hepacivirus hominis. Kind of data set: Inhibition of HCV NS5b polymerase.
Conditions: not given
In the case of `O=C(O)c1nc(-c2cccs2)nc(O)c1O`, the result was inactive.

A further data set is filed under the species Homo sapiens. The data set is described as follows: Inhibitory activity against human DNA polymerase beta.
Conditions: not given
On to `O=C(NCc1ccc(F)cc1)c1nc(-c2cccs2)nc(O)c1O`, for which the result was inactive.

The species entered for the next data set is Homo sapiens. Kind of data set: Inhibitory activity against human DNA polymerase alpha.
Conditions: not given
As for `O=C(NCc1ccc(F)cc1)c1nc(-c2cccs2)nc(O)c1O`, the result was inactive.

Test system in another data set: not listed separately
Kind of data set: Oral bioavailability in rat. The following applies: in vivo. It counts as ADME, organism-based.
As for `O=C(NCc1ccc(F)cc1)c1nc(-c2cccs2)nc(O)c1O`, the bioavailability came out at 39%.

The subject of a further data set is Human immunodeficiency virus. The data set is described as follows: Inhibition of HIV reverse transcriptase.
Conditions: not given
Consider `O=C(NCc1ccc(F)cc1)c1nc(-c2cccs2)nc(O)c1O`, for which the result was inactive.
